From the NIST ThermoML archive (doi:10.1016/j.fluid.2014.04.038)
Values joined by “and” are separate entries in the source; they are usually repeats but may differ in a detail not shown here. Equal values may be shown once.

Conditions: Hot wire method

CCF [fluoroethane]
Liquid
Conditions | thermal conductivity
294.9 K | 0.1096 W/m/K
294.91 K | 0.1093 W/m/K
294.94 K | 0.1112 W/m/K and 0.1104 W/m/K
294.95 K | 0.111 W/m/K
295.22 K | 0.11 W/m/K and 0.1098 W/m/K
304.39 K | 0.1056 W/m/K
304.4 K | 0.1056 W/m/K
304.41 K | 0.1057 W/m/K
304.67 K | 0.1054 W/m/K
304.68 K | 0.1056 W/m/K and 0.1052 W/m/K
305.07 K | 0.1055 W/m/K
305.19 K | 0.1057 W/m/K and 0.1058 W/m/K
314.36 K | 0.1007 W/m/K and 0.1002 W/m/K
314.38 K | 0.1003 W/m/K
314.4 K | 0.1003 W/m/K and 0.1012 W/m/K
314.46 K | 0.1013 W/m/K
314.68 K | 0.1009 W/m/K
314.69 K | 0.1008 W/m/K
314.7 K | 0.1003 W/m/K
314.71 K | 0.1011 W/m/K and 0.1008 W/m/K
314.72 K | 0.1006 W/m/K
315.05 K | 0.1008 W/m/K
315.06 K | 0.1007 W/m/K
315.07 K | 0.1005 W/m/K and 0.101 W/m/K and 0.1008 W/m/K
315.08 K | 0.1002 W/m/K
324.64 K | 0.09597 W/m/K and 0.09452 W/m/K
324.66 K | 0.09557 W/m/K
324.85 K | 0.09515 W/m/K
324.86 K | 0.09533 W/m/K
324.87 K | 0.09498 W/m/K
325.28 K | 0.09515 W/m/K
325.29 K | 0.09565 W/m/K
325.3 K | 0.09512 W/m/K

Gas
Conditions | thermal conductivity [W/m/K]
295.76 K, 779.2 kPa | 0.01526
295.78 K, 690.7 kPa | 0.0151
295.97 K, 520.7 kPa | 0.01551
296.2 K, 275.3 kPa | 0.01553
297.07 K, 690.7 kPa | 0.01526
297.24 K, 520.7 kPa | 0.01534
297.64 K, 275.3 kPa | 0.01544
298.46 K, 520.7 kPa | 0.01532
299.03 K, 275.3 kPa | 0.01558
305.63 K, 712.7 kPa | 0.01677
305.93 K, 916.4 kPa | 0.0163
306.16 K, 227 kPa | 0.01673
306.42 K, 1035 kPa | 0.01653
306.59 K, 712.7 kPa | 0.01627
306.71 K, 504.3 kPa | 0.01683
306.93 K, 916.4 kPa | 0.01663
306.93 K, 1035 kPa | 0.01725
306.97 K, 227 kPa | 0.01654
307.36 K, 1035 kPa | 0.01661
307.57 K, 504.3 kPa | 0.01663
307.89 K, 227 kPa | 0.01643
315.53 K, 1227.4 kPa | 0.01838
315.63 K, 1202.4 kPa | 0.01779
315.79 K, 316.7 kPa | 0.01783
315.81 K, 1005.9 kPa | 0.01828
315.87 K, 807.4 kPa | 0.01738
316.01 K, 1341.3 kPa | 0.01815
316.27 K, 1202.4 kPa | 0.01803
316.4 K, 1005.9 kPa | 0.01789
316.4 K, 1341.3 kPa | 0.01835
316.53 K, 1162.6 kPa | 0.01796
316.59 K, 807.4 kPa | 0.01737
316.83 K, 613.8 kPa | 0.01747
316.94 K, 1202.4 kPa | 0.0181
317.06 K, 1341.3 kPa | 0.01801
317.12 K, 1005.9 kPa | 0.01811
318.31 K, 316.7 kPa | 0.01787
321.99 K, 1292.4 kPa | 0.01904
322.07 K, 1292.4 kPa | 0.01921
322.37 K, 797.5 kPa | 0.01858
322.59 K, 797.5 kPa | 0.01847
323.36 K, 797.5 kPa | 0.01857
324.32 K, 1700.6 kPa | 0.01997
324.97 K, 1700.6 kPa | 0.0202
325.27 K, 1362.6 kPa | 0.01957
325.45 K, 1700.6 kPa | 0.02011
326.1 K, 1362.6 kPa | 0.01993
326.61 K, 1095.3 kPa | 0.0197
326.64 K, 968 kPa | 0.01935
326.71 K, 798.3 kPa | 0.01946
326.98 K, 999.2 kPa | 0.01933
